The target of the assay is T1, Recombinant human HSP90α (Homo sapiens, UniProt P07900).
T1 construct: host or cells: E. coli
The assay can be described thus: Radioligand filter binding test: competitive inhibition of [3H]17AAG binding to HSP90. The note with it: [3H]17AAG 0.08 μM, HSP90 1.5 μg/assay, 22° C., 30 min. The protocol: In the specific case, a radioligand filter binding test is used. The radioligand used here is tritium-labelled 17-allylaminogeldanamycin, [3H]17AAG, This filter binding test allows a targeted search for inhibitors which interfere with the ATP binding site.
Recombinant human HSP90α (E. coli expressed, 95% purity);
HEPES filter buffer (50 mM HEPES, pH 7.0, 5 mM MgCl2, BSA 0.01%) Multiscreen FB (1 μm) filter plate (Millipore, MAFBNOB 50).
The 96-well microtitre filter plates are firstly irrigated and coated with 0.1% of polyethylenimine.
The test is carried out under the following conditions:
Reaction temperature 22° C.
Reaction time: 30 min., shaking at 800 rpm
50 mM HEPES HCl, pH 7.0, 5 mM MgCl2, 0.01% (w/v) of BSA
At the end of the reaction, the supernatant in the filter plate is removed by suction with the aid of a vacuum manifold (Multiscreen Separation System, Millipore), and the filter is washed twice.
The filter plates are then measured in a beta counter (Microbeta, Wallac) with scintillator (Microscint 20, Packard).
“% of control” is determined from the “counts per minutes” values, and the IC-50 value of a compound is calculated therefrom.
The term IC50 denotes the point on the concentration scale where inhibition reaches its midpoint. For the compound “5-[N-(3-Methoxybenzyl)-N-methylaminocarbonyl]-3-benzyl-6-hydroxy-1H-indazole [Compound A27]”, the IC50 fell in the range of 0.01 to 1 µM.

For the compound `CCCN(C)C(=O)c1cc2c(Cc3ccccc3)n[nH]c2cc1O` [Compound A4, 5-(N-propyl-N-methylaminocarbonyl)-3-benzyl-6-hydroxy-1H-indazole], the IC50 was 1 to 10 µM.

For `CN(Cc1ccccc1)C(=O)c1cc2c(Cc3ccccc3)n[nH]c2cc1O` [Compound A6, 5-(N-Benzyl-N-methylaminocarbonyl)-3-benzyl-6-hydroxy-1H-indazole], the IC50 was in the range of 0.01 to 1 µM.

As for `COCCN(C)C(=O)c1cc2c(Cc3ccccc3)n[nH]c2cc1O` [Compound A7, 5-[N-(2-Methoxyethyl)-N-methylaminocarbonyl]-3-benzyl-6-hydroxy-1H-indazole], the IC50 lay within 1 to 10 µM.

As for `CN(Cc1cccc(Cl)c1)C(=O)c1cc2c(Cc3ccccc3)n[nH]c2cc1O` [Compound A10, 5-[N-(3-Chlorobenzyl)-N-methylaminocarbonyl]-3-benzyl-6-hydroxy-1H-indazole], the IC50 was 1 to 10 µM.

`COc1ccc(C)cc1CN(C)C(=O)c1cc2c(Cc3ccccc3)n[nH]c2cc1O` [Compound A20, 5-[N-(2-Methoxy-5-methylbenzyl)-N-methylaminocarbonyl]-3-benzyl-6-hydroxy-1H-indazole]: the IC50 is 1 to 10 µM.

As to `COc1cccc(CN(C)C(=O)c2cc3c(Cc4ccccc4)n[nH]c3cc2O)c1OC` [Compound A23, 5-[N-(2,3-Dimethoxybenzyl)-N-methylaminocarbonyl]-3-benzyl-6-hydroxy-1H-indazole], the IC50 lay within 0.01 to 1 µM.

`CCCCN(C)C(=O)c1cc2c(Cc3cccc(C)c3)n[nH]c2cc1O` [Compound A25, 5-(N-Butyl-N-methylaminocarbonyl)-3-(3-methylbenzyl)-6-hydroxy-1H-indazole]: the IC50 lay in the range of 0.01 to 1 µM.

Turning to `CN(Cc1cccc(Br)c1)C(=O)c1cc2c(Cc3ccccc3)n[nH]c2cc1O` [Compound A26, 5-[N-(3-Bromobenzyl)-N-methylaminocarbonyl]-3-benzyl-6-hydroxy-1H-indazole], the IC50 lay in the range of 1 to 10 µM.

With `CCc1ccc(CN(C)C(=O)c2cc3c(Cc4ccccc4)n[nH]c3cc2O)cc1` [Compound A28, 5-[N-(4-Ethylbenzyl)-N-methylaminocarbonyl]-3-benzyl-6-hydroxy-1H-indazole], the IC50 lay in the range of 0.01 to 1 µM.

For the compound `CN(Cc1cccc(C(F)(F)F)c1)C(=O)c1cc2c(Cc3ccccc3)n[nH]c2cc1O` [Compound A29, 5-[N-(3-Trifluoromethylbenzyl)-N-methylaminocarbonyl]-3-benzyl-6-hydroxy-1H-indazole], the IC50 fell in the range of 1 to 10 µM.

With `CN(Cc1cccc2c1OCO2)C(=O)c1cc2c(Cc3ccccc3)n[nH]c2cc1O` [Compound A30, 5-[N-(Benzo-1,3-dioxol-4-ylmethyl)-N-methylaminocarbonyl]-3-benzyl-6-hydroxy-1H-indazole], the IC50 was 1 to 10 µM.

`COc1ccc(Cl)cc1CN(C)C(=O)c1cc2c(Cc3ccccc3)n[nH]c2cc1O` [Compound A31, 5-[N-(3-Chloro-6-methoxybenzyl)-N-methylaminocarbonyl]-3-benzyl-6-hydroxy-1H-indazole]: the IC50 lay in the range of 1 to 10 µM.

Regarding `CN(Cc1ccccc1)C(=O)c1cc2c(Cc3ccccc3Cl)n[nH]c2cc1O` [Compound A32, 5-(N-Benzyl-N-methylaminocarbonyl)-3-(2-chlorobenzyl)-6-hydroxy-1H-indazole], the IC50 lay within 1 to 10 µM.

`CCCCN(C)C(=O)c1cc2c(Cc3ccccc3Cl)n[nH]c2cc1O` [Compound A33, 5-(N-Butyl-N-methylaminocarbonyl)-3-(2-chlorobenzyl)-6-hydroxy-1H-indazole]: the IC50 was in the range of 1 to 10 µM.

In the case of `COCCN(C)C(=O)c1cc2c(Cc3ccccc3Cl)n[nH]c2cc1O` [Compound A34, 5-[N-(2-Methoxyethyl)-N-methylaminocarbonyl]-3-(2-chlorobenzyl)-6-hydroxy-1H-indazole], the IC50 was greater than 10 µM.
